# Patent US20070203091A1, “Methods and therapeutic compositions for improving liver, blood flow and skeletal muscle functions in advanced diseases and aging” (priority 2006, published 2007)
# Assay: Cachexia markers Part I: serum albumin, pre-albumin, C-Reactive Protein, Phase I study; on C-Reactive Protein, Change from Baseline, Mean: test concentration or dose not given here; on C-Reactive Protein, Change from Baseline, Median: test concentration or dose not given here; on C-Reactive Protein, Observed Values, Mean: test concentration or dose not given here; on C-Reactive Protein, Observed Values, Median: test concentration or dose not given here; on Pre-albumin, Change from Baseline, Mean: test concentration or dose not given here; on Pre-albumin, Change from Baseline, Median: test concentration or dose not given here; on Pre-albumin, Observed Values, Mean: test concentration or dose not given here
# Assay type: in vivo, human
# Details: ITT
# Description: The data for albumin, LDH and Bilirubin support claims reciting improvement in liver function by claimed treatment of a human host in need thereof. Serum LDH levels are an established strong independent negative prognostic factor, inversely related to survival in a great variety of adverse clinical conditions. In advanced refractory cancers, high LDH and low Karnofsky's performance status are among the strongest established independent negative prognostic factors of survival and quality of life (29).
# [1] = Week 1 (Infusion 1), baseline, N=15
compound,measurement,setting,value
"Nc1ncnc2c1ncn2[C@@H]1O[C@H](COP(=O)(O)OP(=O)(O)OP(=O)(O)O)[C@@H](O)[C@H]1O [ATP, adenosine 5′-triphosphate]","C-Reactive Protein, Change from Baseline, Mean",[1],0.0 mg/dL
same,"C-Reactive Protein, Change from Baseline, Median",[1],0.0 mg/dL
same,"C-Reactive Protein, Observed Values, Mean",[1],5.1 mg/dL
same,"C-Reactive Protein, Observed Values, Median",[1],3.4 mg/dL
same,"Pre-albumin, Change from Baseline, Mean",[1],0.0 mg/dL
same,"Pre-albumin, Change from Baseline, Median",[1],0.0 mg/dL
same,"Pre-albumin, Observed Values, Mean",[1],19.7 mg/dL
same,"Pre-albumin, Observed Values, Median",[1],18.0 mg/dL
same,"Serum Albumin, Change from Baseline, Mean",[1],0.0 g/dL
same,"Serum Albumin, Change from Baseline, Median",[1],0.0 g/dL
same,"Serum Albumin, Observed Values, Mean",[1],3.3 g/dL
same,"Serum Albumin, Observed Values, Median",[1],3.4 g/dL
same,"Pre-albumin, Change from Baseline, Mean","Week 2 (Infusion 2), N=13",-1.2 mg/dL
same,"Pre-albumin, Change from Baseline, Median","Week 2 (Infusion 2), N=13",0.0 mg/dL
same,"Pre-albumin, Observed Values, Mean","Week 2 (Infusion 2), N=13",19.4 mg/dL
same,"Pre-albumin, Observed Values, Median","Week 2 (Infusion 2), N=13",17.0 mg/dL
same,"C-Reactive Protein, Change from Baseline, Mean","Week 2 (Infusion 2), N=14",0.1 mg/dL
same,"C-Reactive Protein, Change from Baseline, Median","Week 2 (Infusion 2), N=14",0.5 mg/dL
same,"C-Reactive Protein, Observed Values, Mean","Week 2 (Infusion 2), N=14",5.0 mg/dL
same,"C-Reactive Protein, Observed Values, Median","Week 2 (Infusion 2), N=14",3.3 mg/dL
same,"Serum Albumin, Change from Baseline, Mean","Week 2 (Infusion 2), N=14",-0.1 g/dL
same,"Serum Albumin, Change from Baseline, Median","Week 2 (Infusion 2), N=14",0.0 g/dL
same,"Serum Albumin, Observed Values, Mean","Week 2 (Infusion 2), N=14",3.2 g/dL
same,"Serum Albumin, Observed Values, Median","Week 2 (Infusion 2), N=14",3.2 g/dL
same,"C-Reactive Protein, Change from Baseline, Mean","Week 4 (Infusion 4), N=9",2.5 mg/dL
same,"C-Reactive Protein, Change from Baseline, Median","Week 4 (Infusion 4), N=9",1.6 mg/dL
same,"C-Reactive Protein, Observed Values, Mean","Week 4 (Infusion 4), N=9",6.6 mg/dL
same,"C-Reactive Protein, Observed Values, Median","Week 4 (Infusion 4), N=9",6.1 mg/dL
same,"Pre-albumin, Change from Baseline, Mean","Week 4 (Infusion 4), N=10",-1.3 mg/dL
same,"Pre-albumin, Change from Baseline, Median","Week 4 (Infusion 4), N=10",0.0 mg/dL
same,"Pre-albumin, Observed Values, Mean","Week 4 (Infusion 4), N=10",16.5 mg/dL
same,"Pre-albumin, Observed Values, Median","Week 4 (Infusion 4), N=10",17.0 mg/dL
same,"Serum Albumin, Change from Baseline, Mean","Week 4 (Infusion 4), N=11",-0.2 g/dL
same,"Serum Albumin, Change from Baseline, Median","Week 4 (Infusion 4), N=11",-0.2 g/dL
same,"Serum Albumin, Observed Values, Mean","Week 4 (Infusion 4), N=11",3.2 g/dL
same,"Serum Albumin, Observed Values, Median","Week 4 (Infusion 4), N=11",3.0 g/dL
same,"C-Reactive Protein, Change from Baseline, Mean","Week 6 (Infusion 6), N=8",0.2 mg/dL
same,"C-Reactive Protein, Change from Baseline, Median","Week 6 (Infusion 6), N=8",0.0 mg/dL
same,"C-Reactive Protein, Observed Values, Mean","Week 6 (Infusion 6), N=8",4.5 mg/dL
same,"C-Reactive Protein, Observed Values, Median","Week 6 (Infusion 6), N=8",2.5 mg/dL
same,"Pre-albumin, Change from Baseline, Mean","Week 6 (Infusion 6), N=8",-7.5 mg/dL
same,"Pre-albumin, Change from Baseline, Median","Week 6 (Infusion 6), N=8",-4.5 mg/dL
same,"Pre-albumin, Observed Values, Mean","Week 6 (Infusion 6), N=8",16.6 mg/dL
same,"Pre-albumin, Observed Values, Median","Week 6 (Infusion 6), N=8",16.0 mg/dL
same,"Serum Albumin, Change from Baseline, Mean","Week 6 (Infusion 6), N=9",-0.1 g/dL
same,"Serum Albumin, Change from Baseline, Median","Week 6 (Infusion 6), N=9",-0.2 g/dL
same,"Serum Albumin, Observed Values, Mean","Week 6 (Infusion 6), N=9",3.2 g/dL
same,"Serum Albumin, Observed Values, Median","Week 6 (Infusion 6), N=9",3.1 g/dL
same,"C-Reactive Protein, Change from Baseline, Mean","Week 8 (Infusion 8), N=6",3.7 mg/dL
same,"C-Reactive Protein, Change from Baseline, Median","Week 8 (Infusion 8), N=6",0.0 mg/dL
same,"C-Reactive Protein, Observed Values, Mean","Week 8 (Infusion 8), N=6",9.0 mg/dL
same,"C-Reactive Protein, Observed Values, Median","Week 8 (Infusion 8), N=6",4.7 mg/dL
same,"Pre-albumin, Change from Baseline, Mean","Week 8 (Infusion 8), N=7",-6.3 mg/dL
same,"Pre-albumin, Change from Baseline, Median","Week 8 (Infusion 8), N=7",-4.0 mg/dL
same,"Pre-albumin, Observed Values, Mean","Week 8 (Infusion 8), N=7",19.6 mg/dL
same,"Pre-albumin, Observed Values, Median","Week 8 (Infusion 8), N=7",19.0 mg/dL
same,"Serum Albumin, Change from Baseline, Mean","Week 8 (Infusion 8), N=7",-0.1 g/dL
same,"Serum Albumin, Change from Baseline, Median","Week 8 (Infusion 8), N=7",-0.1 g/dL
same,"Serum Albumin, Observed Values, Mean","Week 8 (Infusion 8), N=7",3.3 g/dL
same,"Serum Albumin, Observed Values, Median","Week 8 (Infusion 8), N=7",3.4 g/dL
